In paper PMC10284601, “Evolution of an extreme hemoglobin phenotype contributed to the sub-Arctic specialization of extinct Steller’s sea cows” (eLife, 2023):

Key:
Experiment in all cases: shift of O2 affinity (P50), thin-film O2 equilibrium curves
Settings in all cases: allosteric effector of O2 binding; 0.5 mM DPG (twofold molar excess over tetramer) vs stripped Hb; no Cl-; 0.1 M HEPES, pH 7.2, 37 °C
[1] = target: T1, Steller's sea cow Hb (H. gigas HbA; α2β/δ2) (Hydrodamalis gigas, UniProt A0A481WR13)
T1 construct: gene HBB; recombinant tetramer, E. coli JM109 (DE3) with co-expressed methionine aminopeptidase, codon-optimised, ion exchange purified; natural β/δ82Asn; with Hemoglobin subunit alpha

dugong Hb (HbA; α2β/δ2) = target: T2, dugong Hb (HbA; α2β/δ2) (Dugong dugon, UniProt A0A481WQB0)
T2 construct: gene HBB; recombinant tetramer, E. coli JM109 (DE3) with co-expressed methionine aminopeptidase, codon-optimised, ion exchange purified; with Hemoglobin subunit alpha

[2] = target: T3, Steller's sea cow Hb (H. gigas HbA; α2β/δ2) (Hydrodamalis gigas, UniProt A0A481WR13, N83K)
T3 construct: gene HBB; recombinant tetramer, E. coli JM109 (DE3) with co-expressed methionine aminopeptidase, codon-optimised, ion exchange purified; natural β/δ82Asn; with Hemoglobin subunit alpha
T3 sequence (A0A481WNT7 entry or part of it, stated change not applied): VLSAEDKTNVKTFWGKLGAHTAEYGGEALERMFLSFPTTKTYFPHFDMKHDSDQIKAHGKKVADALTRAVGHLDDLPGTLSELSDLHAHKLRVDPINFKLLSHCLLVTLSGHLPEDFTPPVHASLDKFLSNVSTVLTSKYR
T3 sequence (A0A481WR13 entry or part of it N83K): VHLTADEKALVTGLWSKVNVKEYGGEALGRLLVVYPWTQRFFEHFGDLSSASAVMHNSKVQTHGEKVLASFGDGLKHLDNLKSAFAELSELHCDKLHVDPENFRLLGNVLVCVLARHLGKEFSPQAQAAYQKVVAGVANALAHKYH

T2 sequence (A0A481WNF4 entry or part of it): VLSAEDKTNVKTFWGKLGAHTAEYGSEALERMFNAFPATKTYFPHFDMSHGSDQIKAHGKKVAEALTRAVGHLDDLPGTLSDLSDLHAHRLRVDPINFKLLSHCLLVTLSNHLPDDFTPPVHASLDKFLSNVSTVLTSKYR
T2 sequence (A0A481WQB0 entry or part of it): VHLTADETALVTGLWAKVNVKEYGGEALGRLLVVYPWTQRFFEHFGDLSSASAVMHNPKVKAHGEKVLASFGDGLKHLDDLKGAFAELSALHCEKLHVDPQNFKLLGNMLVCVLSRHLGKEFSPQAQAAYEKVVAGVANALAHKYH
T1 sequence (A0A481WR13 entry or part of it): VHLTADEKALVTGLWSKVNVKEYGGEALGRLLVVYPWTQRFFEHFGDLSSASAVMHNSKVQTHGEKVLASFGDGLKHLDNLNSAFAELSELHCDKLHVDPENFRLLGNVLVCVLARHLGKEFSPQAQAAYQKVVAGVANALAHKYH
T1 sequence (A0A481WNT7 entry or part of it, further chain): as the sequence (A0A481WNT7 entry or part of it, stated change not applied) above

**Q.** What does the source list for `O=C(O)[C@@H](COP(=O)(O)O)OP(=O)(O)O` [2,3-diphosphoglycerate]?
**A.** ΔlogP50(DPG-stripped) [1]: 0.02 log units (P50 in mm Hg); ΔlogP50(DPG-stripped) (dugong Hb (HbA; α2β/δ2)): 0.30 log units (P50 in mm Hg); ΔlogP50(DPG-stripped) [2]: reversion to the ancestral state restores the DPG effect to the same level
